The values that follow come from BindingDB's records for doi:10.1128/AAC.01293-09 (Glaxosmithkline, 2010).

A short description of experiment [1]: Inhibition of HIV1 HXB2 gp120-mediated viral infusion into HEK293 cells after 24 hrs by luciferase reporter gene assay in presence of 45 mg/ml human serum albumin.
A short description of experiment [2]: Inhibition of CXCR4-mediated chemotaxis in SDF1-stimulated human U937 cells treated 15 mins before SDF1 challenge measured after 2 hrs by luminescence assay.
Experiment [3] can be described thus: Inhibition of HIV1 HXB2 gp120-mediated viral infusion into HEK293 cells after 24 hrs by luciferase reporter gene assay.

As a reminder, the IC50 is the concentration at which inhibition is half-maximal. As to `CN1CCN(c2cccc3nc(CN(C)[C@H]4CCCc5cccnc54)c(CO)n23)CC1` [([5-(4-Methyl-1-piperazinyl)-2-({methyl[(8S)-5,6,7,8-tetrahydro-8-quinolinyl]amino}methyl)imidazo[1,2-a]pyridin-3-yl]methanol)], the IC50 in experiment [1] was found to be 1.71 nM; in experiment [2], 0.34 nM; in experiment [3] it was 0.56 nM.
